Data from paper PMC7960626, “Phase I study assessing the mass balance, pharmacokinetics, and excretion of [^14C]-pevonedistat, a NEDD8-activating enzyme inhibitor in patients with advanced solid tumors” (Investigational New Drugs, 2020).

Columns and labels:
[1] = system: acute myeloid leukemia (AML) xenograft models; design: method as in PMID 20203261; conditions: mice; cited from earlier work
[2] = system: human colon and lung tumor xenograft models; design: method as in PMID 19509147; conditions: repeated dosing, immunocompromised mice; cited from earlier work
[3] = Safety (TEAEs) of pevonedistat days 1, 3, 5 plus carboplatin/paclitaxel or docetaxel in 3-week cycles (part B); assay type: in vivo, human; conditions: for On-study deaths, patients: part B, Total (N = 7)
Description: This was a two-part (A and B), open-label, multicenter, mass balance, distribution, metabolism, excretion (DME) study in adult patients with advanced solid tumors. In part A, patients received a single IV infusion of [^14C]-pevonedistat 25 mg/m^2 (containing approximately 60–85 µCi, or 2.22–3.145 MBq, of total radioactivity) at a single center (Duna Medical Center, Budapest, Hungary). Patients were required to stay at the part A study site for approximately 8 days or until the discharge criteria were met, with a maximum estimated confinement period of 9–14 days. Upon completion of part A, patients had the option to participate in part B at Medical Center Hungarian Defense Forces, Budapest, Hungary. In part B, patients received treatment in 3-week cycles with either: pevonedistat 20 mg/m^2 on days 1, 3, and 5 plus carboplatin AUC5 and paclitaxel 175 mg/m^2 on day 1; or pevonedistat 25 mg/m^2 on days 1, 3, and 5 plus docetaxel 75 mg/m^2 on day 1. Treatment was administered for 12 cycles or until discontinuation criteria were met.
Blood samples were collected for total radioactivity and PK assessments in whole blood and plasma at prespecified time points (pre dose [within 1 h before the start of the pevonedistat infusion], end of infusion, then 0.5, 1, 2, 3, 4, 8, 12, 24, 48, 72, 96, 120, 144 and 168 hours post dose). Complete urinary and fecal output were collected for analysis of PK (urine) and total radioactivity (urine and feces) throughout the confinement period until discharge criteria were met. Bioanalytical assay methods are shown in the Supplementary Methods. Safety was assessed by incidence and severity of TEAEs, vital signs, physical examinations, electrocardiograms, and clinical laboratory tests, and toxicities were graded according to the National Cancer Institute Common Terminology Criteria for Adverse Events (NCI CTCAE), version 4.03. In part B, disease assessments were conducted using radiological evaluations (computed tomography [CT] scan or magnetic resonance imaging [MRI], as clinically indicated).
PK data were summarized using descriptive statistics, and the PK and mass balance parameters described in Supplementary Table S1 were calculated by non-compartmental analysis for each individual patient. Safety was assessed in all patients who received at least one dose of pevonedistat, and TEAEs were coded according to the Medical Dictionary for Regulatory Activities (MedDRA), version 20.0. Analysis of efficacy in part B was descriptive; disease response was assessed in all patients who received at least one dose of pevonedistat, had measurable disease (per entry criteria for part B), and had at least one post-baseline disease assessment. Response assessment was done by the investigator using Response Evaluation Criteria in Solid Tumors (RECIST) version 1.1. SAS version 9.4 was used for all statistical analyses.

[4] = human, in vivo, 12 3-week cycles

SMILES: NS(=O)(=O)OC[C@@H]1C[C@@H](n2ccc3c(N[C@H]4CCc5ccccc54)ncnc32)C[C@@H]1O [Pevonedistat]
- disease course [1]: durable disease regression
- tumor growth [2]: tumor growth inhibition
- Abdominal distension, All Grades ([3]; human, in vivo): 1 (14.3) n (%)
- Abdominal distension, Grade ≥ 3 ([3]; human, in vivo): 0 n (%)
- Abdominal pain upper, All Grades ([3]; human, in vivo): 1 (14.3) n (%)
- Abdominal pain upper, Grade ≥ 3 ([3]; human, in vivo): 0 n (%)
- Abdominal pain, All Grades ([3]; human, in vivo): 1 (14.3) n (%)
- Abdominal pain, Grade ≥ 3 ([3]; human, in vivo): 0 n (%)
- Alopecia, All Grades ([3]; human, in vivo): 1 (14.3) n (%)
- Alopecia, Grade ≥ 3 ([3]; human, in vivo): 0 n (%)
- Arthralgia, All Grades ([3]; human, in vivo): 1 (14.3) n (%)
- Arthralgia, Grade ≥ 3 ([3]; human, in vivo): 0 n (%)
- Asthenia, All Grades ([3]; human, in vivo): 3 patients (42.9%) n (%)
- Back pain, All Grades ([3]; human, in vivo): 1 (14.3) n (%)
- Back pain, Grade ≥ 3 ([3]; human, in vivo): 0 n (%)
- Blood bilirubin increased, All Grades ([3]; human, in vivo): 1 (14.3) n (%)
- Blood bilirubin increased, Grade ≥ 3 ([3]; human, in vivo): 0 n (%)
- Blood creatinine increased, All Grades ([3]; human, in vivo): 1 (14.3) n (%)
- Blood creatinine increased, Grade ≥ 3 ([3]; human, in vivo): 0 n (%)
- Blood urea increased, All Grades ([3]; human, in vivo): 1 (14.3) n (%)
- Blood urea increased, Grade ≥ 3 ([3]; human, in vivo): 0 n (%)
- Bone pain, All Grades ([3]; human, in vivo): 1 (14.3) n (%)
- Bone pain, Grade ≥ 3 ([3]; human, in vivo): 0 n (%)
- Chest pain, All Grades ([3]; human, in vivo): 1 (14.3) n (%)
- Chest pain, Grade ≥ 3 ([3]; human, in vivo): 0 n (%)
- Chills, All Grades ([3]; human, in vivo): 1 (14.3) n (%)
- Chills, Grade ≥ 3 ([3]; human, in vivo): 0 n (%)
- Conjunctival hemorrhage, All Grades ([3]; human, in vivo): 1 (14.3) n (%)
- Conjunctival hemorrhage, Grade ≥ 3 ([3]; human, in vivo): 0 n (%)
- Diarrhea, All Grades ([3]; human, in vivo): 3 patients (42.9%) n (%)
- Dyspnea, All Grades ([3]; human, in vivo): 1 (14.3) n (%)
- Dyspnea, Grade ≥ 3 ([3]; human, in vivo): 0 n (%)
- Edema peripheral, All Grades ([3]; human, in vivo): 1 (14.3) n (%)
- Edema peripheral, Grade ≥ 3 ([3]; human, in vivo): 0 n (%)
- Fibrosarcoma, All Grades ([3]; human, in vivo): 1 (14.3) n (%)
- Fibrosarcoma, Grade ≥ 3 ([3]; human, in vivo): 1 (14.3) n (%)
- General physical health deterioration, All Grades ([3]; human, in vivo): 1 (14.3) n (%)
- General physical health deterioration, Grade ≥ 3 ([3]; human, in vivo): 1 (14.3) n (%)
- Grade ≥ 3 drug-related decreased platelet count ([3]; human, in vivo): 1 patient
- Grade ≥ 3 drug-related increased ALT and AST ([3]; human, in vivo): 1 patient
- Leukocytosis, All Grades ([3]; human, in vivo): 1 (14.3) n (%)
- Leukocytosis, Grade ≥ 3 ([3]; human, in vivo): 0 n (%)
- Leukopenia, All Grades ([3]; human, in vivo): 1 (14.3) n (%)
- Leukopenia, Grade ≥ 3 ([3]; human, in vivo): 0 n (%)
- Mueller’s mixed tumor, All Grades ([3]; human, in vivo): 1 (14.3) n (%)
- Mueller’s mixed tumor, Grade ≥ 3 ([3]; human, in vivo): 0 n (%)
- Nausea, All Grades ([3]; human, in vivo): 3 patients (42.9%) n (%)
- Pain, Grade ≥ 3 ([3]; human, in vivo): 0 n (%)
- Peripheral venous disease, All Grades ([3]; human, in vivo): 1 (14.3) n (%)
- Peripheral venous disease, Grade ≥ 3 ([3]; human, in vivo): 0 n (%)
- Platelet count decreased, All Grades ([3]; human, in vivo): 1 (14.3) n (%)
- Platelet count decreased, Grade ≥ 3 ([3]; human, in vivo): 1 (14.3) n (%)
- Pneumonia, All Grades ([3]; human, in vivo): 1 (14.3) n (%)
- Pneumonia, Grade ≥ 3 ([3]; human, in vivo): 1 (14.3) n (%)
- Pyrexia, All Grades ([3]; human, in vivo): 2 (28.6) n (%)
- Pyrexia, Grade ≥ 3 ([3]; human, in vivo): 0 n (%)
- Rash, All Grades ([3]; human, in vivo): 1 (14.3) n (%)
- Rash, Grade ≥ 3 ([3]; human, in vivo): 0 n (%)
- Serious TEAEs, patients ([3]; human, in vivo): Three patients (42.9%) n (%)
- Spinal compression fracture, All Grades ([3]; human, in vivo): 1 (14.3) n (%)
- Spinal compression fracture, Grade ≥ 3 ([3]; human, in vivo): 0 n (%)
- Swelling, All Grades ([3]; human, in vivo): 1 (14.3) n (%)
- Swelling, Grade ≥ 3 ([3]; human, in vivo): 0 n (%)
- TEAEs, patients ([3]; human, in vivo): 7 n (%)
- TEAEs: Drug-related (any drug of the combination), patients ([3]; human, in vivo): 6 patients (85.7%) n (%)
- TEAEs: Grade ≥ 3, patients ([3]; human, in vivo): Four patients (57.1%) n (%)
- TEAEs: Grade ≥ 3 drug-related, patients ([3]; human, in vivo): 2 n (%)
- Upper respiratory tract infection, All Grades ([3]; human, in vivo): 1 (14.3) n (%)
- Upper respiratory tract infection, Grade ≥ 3 ([3]; human, in vivo): 0 n (%)
- Vomiting, All Grades ([3]; human, in vivo): 4 patients (57.1%) n (%)
- Weight decreased, All Grades ([3]; human, in vivo): 1 (14.3) n (%)
- Weight decreased, Grade ≥ 3 ([3]; human, in vivo): 0 n (%)
- ALT increased, All Grades [3, 4]: 2 (28.6) n (%)
- ALT increased, Grade ≥ 3 [3, 4]: 1 (14.3) n (%)
- AST increased, All Grades [3, 4]: 2 (28.6) n (%)
- AST increased, Grade ≥ 3 [3, 4]: 1 (14.3) n (%)
- Anemia, All Grades [3, 4]: 2 (28.6) n (%)
- Anemia, Grade ≥ 3 [3, 4]: 0 n (%)
- Asthenia, All Grades [3, 4]: 3 (42.9) n (%)
- Asthenia, Grade ≥ 3 [3, 4]: 0 n (%)
- Diarrhea, All Grades [3, 4]: 3 (42.9) n (%)
- Diarrhea, Grade ≥ 3 [3, 4]: 0 n (%)
- Fatigue, All Grades [3, 4]: 2 (28.6) n (%)
- Fatigue, Grade ≥ 3 [3, 4]: 0 n (%)
- Nausea, All Grades [3, 4]: 3 (42.9) n (%)
- Nausea, Grade ≥ 3 [3, 4]: 0 n (%)
- Pain, All Grades [3, 4]: 2 (28.6) n (%)
- Serious TEAEs, patients [3, 4]: 3 (42.9) n (%)
- Serious TEAEs: Drug-related, patients [3, 4]: 0 n (%)
- Serious TEAEs: Resulting in study discontinuation, patients [3, 4]: 1 (14.3) n (%)
- TEAEs, patients [3, 4]: 7 (100.0) n (%)
- TEAEs: Drug-related (any drug of the combination), patients [3, 4]: 6 (85.7) n (%)
- TEAEs: Grade ≥ 3, patients [3, 4]: 4 (57.1) n (%)
- TEAEs: Grade ≥ 3 drug-related, patients [3, 4]: 2 (28.6) n (%)
- TEAEs: Resulting in study drug discontinuation, patients [3, 4]: 1 (14.3) n (%)
- Thrombocytopenia, All Grades [3, 4]: 2 (28.6) n (%)
- Thrombocytopenia, Grade ≥ 3 [3, 4]: 0 n (%)
- Vomiting, All Grades [3, 4]: 4 (57.1) n (%)
- Vomiting, Grade ≥ 3 [3, 4]: 0 n (%)
- Oral herpes, All Grades ([3]; human, in vivo, po): 1 (14.3) n (%)
- Oral herpes, Grade ≥ 3 ([3]; human, in vivo, po): 0 n (%)
- Serious TEAEs: Drug-related, patients ([3]; in vivo): none of which were considered related to treatment
- On-study deaths, patients [3]: 2 (28.6) n (%)
- On-study deaths, patients ([3]; listed as pevonedistat): Two
